From patent US6203822A, “Gallium-containing compounds for the treatment of infections caused by intracellular pathogens and pathogens causing chronic pulmonary infection” (priority 1996, dated 2001)

Assays:
[1] = test system: M. tuberculosis strain H37Ra; assay type: cell-based
[2] = test system: M. tuberculosis in human macrophages; test: Colony-forming unit assay to assess pathogen death; assay type: cell-based
Experimental: Example 4 and Example 5 detail exemplary methods used to determine whether the mycobacteria strains were killed by the addition of gallium nitrate. […] The bacteria were resuspended in 7H9 broth (BBL Microbiology Systems) or onto agar plates without gallium nitrate and incubated under conditions known to promote bacterial growth. In Example 4, the growth index for these cultures was assessed after 6 weeks to determine whether bacteria are inhibited or killed. […] In Example 5, M. tuberculosis-infected macrophages cell lysates were plated onto the surface of media able to support M. tuberculosis growth. Colony forming unit assays were counted to assess bacterial death or inhibition.
The growth index assay cannot always clearly distinguish between bacterial survival (without multiplication) and bacterial death. Therefore, colony forming unit assays were also used to assess the bactericidal activity of gallium-containing compounds in these experiments. Lysed monolayers were plated in Middlebrook 7H11 plates and colonies forming on the plates were counted after 14 days. […] In fact, this experiment provided the most graphic illustration of the influence of gallium nitrate on bacterial killing. That is, control-infected monolayers were lysed as a result of bacterial multiplication so that macrophages could no longer be visualized by microscopy. […] Importantly, the results in the colony-forming unit assay resemble the results obtained with the radiometric BACTEC assay.

[3] = test system: infected and uninfected cells; settings: read-out: concentration not toxic in vitro
[4] = test system: Leishmania chagasi promastigotes; test: Inhibition of Leishmania chagasi promastigote growth; assay type: cell-based
Experimental: Visceral leishmaniasis, the most serious form of human disease cause by Leishmania species, is fatal if untreated. Currently available treatment regimes suffer from both suboptimal efficacy and considerable toxicity. […] Leishmania chagasi, the cause of visceral leishmaniasis requires iron for growth and can obtain that iron from human transferrin, lactoferrin and hemin. When incubated in an in vitro culture system (using the culture methods of Wilson et al. Infect. Immun. 62:3262-3269, 1994), L. chagasi promastigotes were inhibited by the presence of gallium nitrate in a concentration dependent manner with inhibition observed at about at least 500 μM and higher (see Example 14 and FIG. 9).
Amastigotes were isolated from the spleens of infected hamsters and allowed to convert to promastigotes by cultivation in a modified minimal essential medium (HOMEM) with 10% heat inactivated fetal calf serum and hemin (8 μM). Parasites were used within 21 days of isolation from an infected hamster. Promastigote cultures were seeded at 10^6 promastigotes per ml and used after 2 to 3 days in logarithmic phase or 5 to 7 days in stationary phase of growth. During growth studies with gallium nitrate, promastigotes were suspended in iron-containing HOMEM to allow for organism growth. […]

[5] = test system: M. avium-intracellulare complex (MAI), ATCC #25291; test: Growth inhibition of MAI (ATCC isolate) in human alveolar macrophages; assay type: cell-based; settings: 500 μM, 24 hr and 48 hr
Experimental: M. avium-intracellulare complex (MAI) was obtained from the ATCC (#25291) and from a patient isolate from the State Hygienic laboratory at the University of Iowa Hospital and Clinics. Human alveolar macrophages were obtained from broncholavage of healthy patients and placed in monolayer culture. The bacteria were added to the cells in a bacteria to macrophage ratio of about 1:1. Growth index readings were obtained at 24 hr and 48 hr after gallium nitrate administration (500 μM) as described in Example 3 and used by Cavalieri, et al. (Antimicrob. Agents and Chemo. 39:1542-1545,1995).

[6] = cited from earlier work
[7] = test system: Macrophages (MDMs) infected with M. tuberculosis; test: Monolayer density of macrophages (MDMs) infected with M. tuberculosis and treated with gallium nitrate; assay type: cell-based, human
Experimental: Macrophages were infected with M. tuberculosis at a ratio of 1:5 (MDMs:bacteria) and treated with 500 μM or 1 mM gallium nitrate. Cell density was assessed over time. The results of the experiments comparing the monolayer integrity of untreated vs. gallium nitrate treated cultures were as follows: […]

[8] = test system: P. aeruginosa strain PA01; test: Growth inhibition of P. aeruginosa in iron-supplemented succinate medium; assay type: cell-based; settings: for A600 (growth): 1 μM ferric chloride, 7 h, control A600=0.297
Experimental: In another embodiment of this invention, P. aeruginosa, the principle cause of chronic lung infections in patients with cystic fibrosis, was also determined to be susceptible to gallium-containing compounds. The PA01 strain of P. aeruginosa only grew in an iron-restricted succinate based broth medium (Cox, CD. Infect. Immun. 52:263-270, 1986) that included exogenous Ferric chloride or iron chelated to either of the siderophores pyochelin or pyoverdin at concentrations of 1 μM or greater. The addition of gallium nitrate to the iron supplemented medium inhibited P. aeruginosa growth (see Example 15). Growth was measure by monitoring the culture medium absorbance at 600 nm.
P. aeruginosa strain PA01 was suspended in succinate-based medium (Cox, C. D., Infect. Immun. 52:262-270, 1986) to an optical density of approximately 0.040 at 600 nm in the absence (negative control) or presence of 1 μM ferric chloride (positive growth control). To some aliquots of both positive and negative control conditions, gallium nitrate was added at varying concentrations. The bacterial suspensions were placed at 37° C. for 7 h and growth was determined by measuring absorbance at 600 nm. […] With the inclusion of ferric chloride the concentration of organisms increased nearly eight fold A600=0.297).

## O=[N+]([O-])[O-].O=[N+]([O-])[O-].O=[N+]([O-])[O-].[Ga+3] [gallium nitrate]
[1]
  concentration with marked inhibition of growth (comparison with gallium transferrin): 100 µM
[2]; between days 2 and 5 following gallium nitrate
  colony-forming units from macrophage lysates, trend: continuous decrease in colony-forming units
[2]; colony forming unit assay, FIG. 5
  killing of M. tuberculosis: M. tuberculosis were killed
[2]; day 5
  colony-forming units relative to initial amount of bacteria in macrophages: only slightly below the initial amount of bacteria in macrophages
[2]; during assay, control-infected monolayers were lysed
  monolayer of treated infected macrophages: maintained a very good monolayer
[3]
  MNTC: 1 mM
[4]; L. chagasi promastigotes
  concentration at which inhibition was observed: at least 500 μM
[4]; about 250 μM to about 2 mM, about 24 to about 120 hrs
  inhibition of promastigote growth: significantly inhibited
[5]
  growth inhibition of MAI: inhibits the growth of MAI
[5]; listed as Gallium nitrate
  growth inhibition of MAI: significant inhibition of MAI growth
[6]; in vivo
  dose that is non-toxic in vivo: at least 200 mg/m^2 /day
  plasma concentration that is non-toxic in vivo: greater than 1.2 mg/L
[6]; intravenous, at least 7 days (Todd et al.)
  tolerated dose: at least 200 mg/m^2 /day
[6]; literature, cancer patients
  safe dose in cancer patient therapy: at least 200 mg/m^2 /day
[6]; patients with cancer-related hypercalcemia
  tolerability: well tolerated, producing few clinically relevant adverse effects
[7]; Experiment #2, Day 1, 24 hr postinfection, 500 μM or 1 mM
  Monolayer Integrity: No difference between Ga-treated and control
[7]; Experiment #2, Day 3, 4 days postinfection, 500 μM or 1 mM
  Monolayer Integrity: No difference between Ga-treated and control
[7]; Experiment #2, Day 6, 7 days postinfection, 500 μM or 1 mM
  Monolayer Integrity: times the number of cells in Ga-treated cultures: 2-4 times
[7]; Experiment No. 1, Day 1, 24 h postinfection, 500 μM or 1 mM
  Monolayer Integrity: No difference
[7]; Experiment No. 1, Day 8, 9 days postinfection, 500 μM or 1 mM
  Monolayer Integrity: more cells in Ga-treated cultures: 25-50%
[7]; Experiment No. 1, Day 11, 12 days postinfection, 500 μM or 1 mM
  Monolayer Integrity: times as many cells in Ga-treated cultures: 4-5 times
[7]; Experiment No. 1, Day 29, 30 days postinfection, 500 μM or 1 mM
  Monolayer Integrity: times as many cells in Ga-treated cultures: 4-5 times
[7]; Experiment No. 1, Day 33, 34 days postinfection, control wells had no cells left
  Monolayer Integrity: No difference between monolayers treated
[8]; 1 μM gallium nitrate
  growth inhibition in words: Slight inhibition
  A600 (growth): 0.270
[8]; 10 μM gallium nitrate
  decrease of growth: more than 50%
  A600 (growth): 0.130
[8]; 100 μM and 10 μM gallium nitrate, ferric chloride supplemented
  P. aeruginosa growth inhibition: Significant inhibition
[8]; 100 μM gallium nitrate
  growth inhibition in words: completely inhibited
  A600 (growth): 0.043
